We go through 22 molecules from PubChem BioAssay (NCI).

Molecules are shown by their SMILES. Values joined by “and” are separate entries in the source; they are usually repeats but may differ in a detail not shown here. Identical values can stand only once.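 All cell lines were grown in 96-well plates and treated with compound for 48 hours. GI50 = concentration required for 50% inhibition of growth. TGI is the concentration that stops growth completely.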

Among the test systems are A498 renal; CCRF-CEM leukemia; HCT-15 colon; HOP-62 NSCLC; LOX IMVI melanoma; MCF7 breast; MOLT-4 leukemia; OVCAR-8 ovarian; SK-MEL-5 melanoma; UACC-62 melanoma.
Holding throughout (assay): NCI tumour cell line growth inhibition, 48 h

As for `COc1ccc(NC2=NCCO2)c2ccccc12`, the TGI in the assay on A498 renal, in the assay with CCRF-CEM leukemia, in the assay with HCT-15 colon, in the assay with HOP-62 NSCLC, in the assay on LOX IMVI melanoma and with MCF7 breast was greater than 10 µM in each case. Further, the TGI in the assay with MOLT-4 leukemia, in the assay on OVCAR-8 ovarian, with SK-MEL-5 melanoma and in the assay with UACC-62 melanoma was greater than 10 µM in each case.

As for `Cc1ccc(S(=O)(=O)N/N=C2\C=C[C@]3(CC2)C(=O)N(C)c2ccccc23)cc1`, the TGI in the assay with A498 renal, in the assay on CCRF-CEM leukemia, in the assay on HCT-15 colon, in the assay on HOP-62 NSCLC, in the assay with LOX IMVI melanoma and with MCF7 breast was greater than 100 µM throughout. The TGI with MOLT-4 leukemia, in the assay on OVCAR-8 ovarian, in the assay on SK-MEL-5 melanoma and with UACC-62 melanoma was greater than 100 µM in each case.

As to `O=C(/C=C/c1ccc(Cl)c(Cl)c1)Oc1ccc(/C=C2\CCCCC2=O)cc1`, the TGI in the assay on A498 renal, in the assay on CCRF-CEM leukemia, in the assay on HCT-15 colon, in the assay on HOP-62 NSCLC, in the assay on LOX IMVI melanoma and in the assay with MCF7 breast was greater than 100 µM each time. Besides, the TGI is 72.1 µM in the assay with MOLT-4 leukemia, greater than 100 µM with OVCAR-8 ovarian, greater than 100 µM in the assay on SK-MEL-5 melanoma and greater than 100 µM in the assay with UACC-62 melanoma.

Turning to `O=C1c2cc(CCl)sc2C(=O)c2ccsc21`, the TGI in the assay on A498 renal is 3.01 µM; with CCRF-CEM leukemia it was 1.22 µM; with HCT-15 colon, 1.48 µM; with LOX IMVI melanoma it was 0.149 µM; in the assay on MCF7 breast it was 0.406 µM; in the assay on MOLT-4 leukemia, 0.47 µM. Also, the values for the TGI with OVCAR-8 ovarian, in the assay on SK-MEL-5 melanoma and with UACC-62 melanoma were 0.674 µM, 0.0821 µM and 0.319 µM, respectively.

For `S=C(Nc1ccc(Br)cn1)NC12CC3CC(CC(C3)C1)C2`, the TGI in the assay with A498 renal was greater than 100 µM; in the assay with CCRF-CEM leukemia, 70.3 µM; in the assay with HCT-15 colon it was greater than 100 µM; in the assay on HOP-62 NSCLC, greater than 100 µM; in the assay with MCF7 breast it was greater than 100 µM; with MOLT-4 leukemia, 67.6 µM. Besides, the TGI with OVCAR-8 ovarian was 25.9 µM; with UACC-62 melanoma, 43.4 µM.

`CCN(CC)CCNc1ccc(C)c2sc3ccc(O)cc3c(=O)c12`: the TGI came to 4.27 µM in the assay with A498 renal; 1.06 µM with CCRF-CEM leukemia; 2.72 µM in the assay on HCT-15 colon; 1.66 µM in the assay on HOP-62 NSCLC; 2.18 µM in the assay with LOX IMVI melanoma; 1.16 µM with MOLT-4 leukemia. The TGI in the assay with OVCAR-8 ovarian amounted to 3.2 µM; in the assay with SK-MEL-5 melanoma, 2.3 µM; in the assay on UACC-62 melanoma, 2.21 µM.

In the case of `COc1ccc2c(c1)c1cc(OC)ccc1n2CCCCOc1ccc(-c2c3ccccc3c(-c3ccc(OCCCCn4c5ccc(OC)cc5c5cc(OC)ccc54)cc3)c3ccccc23)cc1`, the TGI in the assay with CCRF-CEM leukemia, in the assay on HCT-15 colon, in the assay with HOP-62 NSCLC, with LOX IMVI melanoma, in the assay on MOLT-4 leukemia and with OVCAR-8 ovarian was greater than 100 µM each time. In the assay on UACC-62 melanoma, this molecule had a TGI greater than 100 µM.

As for `O=C(NC(Nc1ccc(F)c(Cl)c1)(C(F)(F)F)C(F)(F)F)C(C(F)(F)F)C(F)(F)F`, the TGI with A498 renal is greater than 100 µM; in the assay on CCRF-CEM leukemia, 73.9 µM; with HCT-15 colon, greater than 100 µM; in the assay on HOP-62 NSCLC, greater than 100 µM; in the assay with LOX IMVI melanoma, 29.9 µM; in the assay with MCF7 breast, greater than 100 µM. Further, the TGI with MOLT-4 leukemia was 57 µM; in the assay with OVCAR-8 ovarian it was greater than 100 µM; in the assay with SK-MEL-5 melanoma, 81.3 µM.

In the case of `CSC(=NCCN=C(NS(=O)(=O)c1ccc(Cl)cc1)SC)NS(=O)(=O)c1ccc(Cl)cc1`, the TGI was greater than 100 µM in the assay on A498 renal; greater than 100 µM with CCRF-CEM leukemia; greater than 100 µM in the assay with HCT-15 colon; 87.8 µM in the assay on HOP-62 NSCLC; greater than 100 µM in the assay on LOX IMVI melanoma; greater than 100 µM with MCF7 breast. Besides, the TGI in the assay with MOLT-4 leukemia, in the assay with OVCAR-8 ovarian and in the assay with UACC-62 melanoma was greater than 100 µM in each case.

For `C[N+]1(C)CN(c2ccccc2)C2(CCN(CCCC(=O)c3cccs3)CC2)C1=O`, the TGI with A498 renal, in the assay on CCRF-CEM leukemia, with HCT-15 colon, in the assay with HOP-62 NSCLC, with LOX IMVI melanoma and with MCF7 breast was greater than 100 µM in each case. Moreover, the TGI in the assay on MOLT-4 leukemia was greater than 100 µM; in the assay on OVCAR-8 ovarian, greater than 100 µM; with SK-MEL-5 melanoma, 77.1 µM; with UACC-62 melanoma, greater than 100 µM.

Regarding `C/C(=N\Nc1ccc([N+](=O)[O-])cc1)C(=O)N(C)Nc1ccccc1`, the TGI with A498 renal, with CCRF-CEM leukemia, in the assay with HCT-15 colon, in the assay with HOP-62 NSCLC, in the assay with LOX IMVI melanoma and with MOLT-4 leukemia was greater than 100 µM each time. For the same molecule, the TGI in the assay on OVCAR-8 ovarian and in the assay on UACC-62 melanoma was greater than 100 µM each time.

`CC(=O)Oc1c(OC(C)=O)c(-c2ccc(O)c(O)c2)c(O)c(O)c1-c1ccc(O)cc1`: the TGI in the assay on A498 renal is greater than 100 µM; in the assay with CCRF-CEM leukemia, 67.8 µM and > 100 µM; with HCT-15 colon, greater than 100 µM; with HOP-62 NSCLC, greater than 100 µM; in the assay on LOX IMVI melanoma it was 94 µM and 95.9 µM; with MCF7 breast, 35.9 µM and > 100 µM. Moreover, the TGI in the assay on MOLT-4 leukemia is greater than 100 µM; in the assay with OVCAR-8 ovarian it was greater than 100 µM; in the assay on SK-MEL-5 melanoma, greater than 100 µM; in the assay with UACC-62 melanoma it was 45.4 µM and 75.5 µM. Moreover, the GI50 with CCRF-CEM leukemia is 24.5 µM; in the assay on HCT-15 colon it was 76.3 µM; in the assay with MCF7 breast it was 18.8 µM; in the assay with MOLT-4 leukemia, 53.6 µM; with UACC-62 melanoma, 21.7 µM.

For the molecule `CSCCCCCCCCCCOc1ccc(C=C2C(=C(C#N)C#N)c3ccccc3C2=C(C#N)C#N)cc1`, the TGI in the assay with A498 renal is 33.1 µM; in the assay with CCRF-CEM leukemia, 12.2 µM; in the assay on HCT-15 colon, 46.8 µM; in the assay on HOP-62 NSCLC it was 32.2 µM; in the assay on LOX IMVI melanoma it was 61.7 µM; with MCF7 breast it was 32.3 µM. Further, the TGI is 64.5 µM in the assay on MOLT-4 leukemia, 39.6 µM in the assay on OVCAR-8 ovarian and 31.9 µM in the assay with SK-MEL-5 melanoma.

For `Cc1ccc(/C=N/Nc2ncccn2)s1`, the TGI in the assay on CCRF-CEM leukemia, with HCT-15 colon, in the assay with HOP-62 NSCLC, in the assay on LOX IMVI melanoma, in the assay on MCF7 breast and with OVCAR-8 ovarian was greater than 100 µM throughout. For the same molecule, the TGI with SK-MEL-5 melanoma and in the assay on UACC-62 melanoma was greater than 100 µM throughout.

On to `CCN(CC)CCCNC(=O)Cc1ccccc1Nc1c(Cl)cccc1Cl`, for which the TGI is 28.2 µM with CCRF-CEM leukemia; 29.1 µM in the assay on HCT-15 colon; 29.9 µM with HOP-62 NSCLC; 25.6 µM in the assay on LOX IMVI melanoma; 28 µM with MOLT-4 leukemia; 31.9 µM in the assay on OVCAR-8 ovarian. Besides, the TGI in the assay on SK-MEL-5 melanoma amounted to 14.1 µM; in the assay with UACC-62 melanoma, 29.5 µM.

Consider `CC(C)(C)C=C=C(C(C)(C)C)P(=O)(O)O`, for which the TGI in the assay on A498 renal, in the assay on HCT-15 colon, in the assay with HOP-62 NSCLC, in the assay with LOX IMVI melanoma, with OVCAR-8 ovarian and in the assay with SK-MEL-5 melanoma was greater than 100 µM throughout. The TGI in the assay with UACC-62 melanoma is greater than 100 µM.

Turning to `COc1cc(CC2c3cc(OC)c(OC)cc3CCN2C)c(Oc2cc3c(cc2OC)-c2c(OC)c(OC)c(OC)c4c2C(C3)N(C)CC4)cc1OC` (stereo not given), the TGI is 28.8 µM with A498 renal; greater than 50.9 µM in the assay with CCRF-CEM leukemia; 23.4 µM in the assay on HCT-15 colon; 31.3 µM in the assay on HOP-62 NSCLC; 22.6 µM in the assay on LOX IMVI melanoma; greater than 42.5 µM in the assay on MOLT-4 leukemia. The TGI with OVCAR-8 ovarian turned out to be 32 µM; in the assay on SK-MEL-5 melanoma it was 13.4 µM; in the assay with UACC-62 melanoma it was 29.1 µM.

`CCN1/C(=C/C(C)=C/c2sc3ccccc3[n+]2CC)Sc2ccccc21`: the TGI with A498 renal was 1.82 µM; in the assay with CCRF-CEM leukemia, 0.166 µM; in the assay on HOP-62 NSCLC it was 0.391 µM; in the assay with MOLT-4 leukemia, 1.15 µM; with OVCAR-8 ovarian it was 1.37 µM; in the assay with SK-MEL-5 melanoma, 1.11 µM. The TGI in the assay with UACC-62 melanoma came to 1.21 µM.

For `Nc1ccn(C2OC(COP(=O)(O)Oc3ccccc3)C(O)C2O)c(=O)n1` (stereo not given), the TGI with A498 renal, with CCRF-CEM leukemia, in the assay with HCT-15 colon, in the assay on LOX IMVI melanoma, in the assay on MCF7 breast and in the assay with MOLT-4 leukemia was greater than 100 µM in each case. For the same molecule, the TGI in the assay with OVCAR-8 ovarian, in the assay with SK-MEL-5 melanoma and in the assay on UACC-62 melanoma was greater than 100 µM in each case.

Turning to `CNC(=O)CN1CC(=O)N(C)C(=O)C1`, the TGI in the assay with CCRF-CEM leukemia, with HCT-15 colon, in the assay on HOP-62 NSCLC, in the assay on LOX IMVI melanoma, in the assay on MOLT-4 leukemia and in the assay on SK-MEL-5 melanoma was greater than 100 µM throughout. Moreover, the TGI with UACC-62 melanoma is greater than 100 µM.

For the molecule `C=C1C(=O)OC2/C=C(\C)C(O)/C=C\C(C)(O)CC(OC(=O)/C(C)=C/C)C12` (stereo not given), the TGI with A498 renal was greater than 100 µM; in the assay with CCRF-CEM leukemia it was greater than 61.7 µM; in the assay with HCT-15 colon, 33.8 µM; with HOP-62 NSCLC, greater than 100 µM; in the assay on LOX IMVI melanoma, 36.6 µM; in the assay with MOLT-4 leukemia it was 53.8 µM. In addition, the TGI was 50.5 µM with OVCAR-8 ovarian, greater than 100 µM in the assay on SK-MEL-5 melanoma and 32.6 µM in the assay on UACC-62 melanoma.

Regarding `CC(=O)Nc1ccc(-c2nnc(SCC(=O)Nc3ccc(C)cc3)o2)cc1`, the TGI is greater than 100 µM in the assay with CCRF-CEM leukemia; 30 µM in the assay with HCT-15 colon; greater than 100 µM in the assay on HOP-62 NSCLC; 31.8 µM with LOX IMVI melanoma; greater than 100 µM with MOLT-4 leukemia; 70.8 µM in the assay with OVCAR-8 ovarian. The TGI with SK-MEL-5 melanoma worked out at 27.8 µM; with UACC-62 melanoma it was 30.7 µM.
